# Source: article PMC11085442 (Molecules, 2024)
# Assays:
# [1] = tested on: LPS-stimulated RAW264.7 cell lines; assay: LPS-induced NO production (Griess) in RAW264.7; type: cell-based, murine; conditions: for The production of NO: LPS group 49.86 ± 0.62, control 1.20 ± 0.38; for inhibitory activity against NO production compared with curcumin: 10 μM
# Method: RAW 264.7 cells were plated in 96-well plates at a density of 1 × 10^4 cells/well and incubated overnight at 37 °C under 5% CO2. […] Dexamethasone (Solarbio, D8040, Beijing, China) was used as the positive control. Then, 24 h later, NO production was determined by measuring the nitrite content using Griess reagents. Fifty microliters of culture supernatants were transferred to 96-well plates and mixed with 50 μL Griess reagent A. After incubation at room temperature for 5 min, the samples were mixed with an equal volume Griess reagent B for another 5 min. The absorbance of each mixture at 540 nm was measured using a microplate reader.
# [2] = tested on: PC 12 cell lines; assay: Radiation protection in vitro (CCK-8); type: cell-based, rat; conditions: for viability at 5 µM / viability at 10 µM / viability at 20 µM: Rattus norvegicus; for viability at 5 µM: PC-12, Dose 5 μM; for viability at 5 µM / viability at 10 µM / viability at 20 µM / Cell viability: radiation 8.0 Gy, PC 12, radiation group 50.22 ± 1.08; for viability at 10 µM: PC-12, Dose 10 μM; for viability at 20 µM: PC-12, Dose 20 μM; for radiation protection capacity / radiation protection capability compared with curcumin: 10 μM; for radiation protection capacity: versus radiation group; for Cell viability: in % (unit assumed)
# Method: The rat adrenal pheochromocytoma cells (PC 12) were used for in vitro studies. A Cell Counting Kit-8 (CCK-8, Applygen Technologies Co., Ltd., Beijing, China) assay was used to determine cell viability. […] Cells were irradiated with dose of 8.0 Gy at a dose rate of 0.8 Gy/min. Then, 10 μL CCK-8 solution was added to all the wells. After 4 h incubation, the absorbance at 450 nm of each well was measured in a multiscan photometer.
# [3] = Aqueous solubility determination by UV spectrophotometer; type: physicochemical; conditions: water, thermodynamic from solid, saturated solution concentration
# Method: A UV spectrophotometer was used to test the aqueous solubility of target compounds. Each compound to be tested was prepared into solutions with concentrations of 0.2 M, 0.1 M, 0.05 M, 0.025 M, 0.0125 M, 0.00625 M, and 0.003125 M. The optical density (OD) values of the prepared solutions were measured using an ultraviolet spectrophotometer, and concentration–OD-value standard curves were drawn for each compound to be tested. The saturated solutions of the target compounds were diluted by 5000 times and detected using an ultraviolet spectrophotometer to measure the OD values, respectively. The measured OD values were substituted into the corresponding concentration-OD value standard curve to calculate the diluted concentrations, which were multiplied by 5000 to obtain the saturated solution concentrations of the target compounds.
# [4] = tested on: H2O2-stimulated PC 12 cell lines; assay: Protection against H2O2-induced oxidative damage (CCK-8); type: cell-based, rat; conditions: for Cell viability / viability at 5 µM / viability at 10 µM / viability at 20 µM: H2O2-induced oxidative damage, PC 12, H2O2 group 49.69 ± 1.37, control 100; for Cell viability: in % (unit assumed); for anti-oxidant capacity compared with curcumin: 10 μM; for anti-oxidant capacity compared with curcumin / cell survival rate (anti-oxidant): H2O2-stimulated PC 12; for viability at 5 µM / viability at 10 µM / viability at 20 µM: Rattus norvegicus; for viability at 5 µM: PC-12, Dose 5 μM; for viability at 10 µM: PC-12, Dose 10 μM; for viability at 20 µM: PC-12, Dose 20 μM; for cell survival rate (anti-oxidant): at 10 μM
# Method: PC 12 cells were seeded in 96-well plates at a density of 8000 cells/well and incubated overnight. […] After incubating under the same conditions for 24 h, 10 μL CCK-8 solution was added to each well. After 2 h incubation, the absorbance of each well was measured at 450 nm using a microplated reader (Multiskan MK-3, Thermo, Waltham, MA, USA).
# [5] = Dose 5 μM, LPS-stimulated RAW264.7
# [6] = Dose 10 μM, LPS-stimulated RAW264.7
# [7] = Dose 15 μM, LPS-stimulated RAW264.7
Structure (SMILES),"The production of NO [1, 5]","The production of NO [1, 6]","The production of NO [1, 7]",viability at 5 µM [2],viability at 10 µM [2],solubility [3],Cell viability ([4]; Dose 5 μM),Cell viability ([4]; Dose 10 μM),Cell viability ([4]; Dose 20 μM),radiation protection capacity [2],inhibitory activity against NO production compared with curcumin [1],Cell viability ([2]; Dose 5 μM),Cell viability ([2]; Dose 10 μM),Cell viability ([2]; Dose 20 μM),viability at 5 µM [4],viability at 10 µM [4],viability at 20 µM [4],also measured
COc1cc(O)ccc1/C=C/C(=O)CC(=O)/C=C/c1cc(CN(C)C)c(O)c(OC)c1 [Compound 9a],36.91 ± 0.59,21.33 ± 0.19,11.29 ± 0.25,56.9 ± 1.03%,60.9 ± 1.55%,167 mg/mL,63.56 ± 2.88,70.76 ± 3.98,81.08 ± 2.61,–,–,–,–,–,–,–,–,viability at 20 µM [2]: 70.2 ± 2.99%
CCOc1cc(/C=C/C(=O)CC(=O)/C=C/c2cc(CN(C)C)c(O)c(OC)c2)ccc1O [Compound 1a],44.93 ± 0.35,32.32 ± 1.94,5.77 ± 0.09,60 ± 5.39%,62.9 ± 6.12%,201 mg/mL,66.25 ± 1.36,80.18 ± 1.38,89.36 ± 1.63,a certain degree of radiation protection capacity,–,–,–,–,–,–,–,anti-oxidant capacity compared with curcumin [4]: better anti-oxidant capacity
COc1cc(/C=C/C(=O)CC(=O)/C=C/c2ccc(O)cc2)cc(CN(C)C)c1O [Compound 10a],24.20 ± 1.36,7.81 ± 0.85,3.91 ± 0.22,–,–,335 mg/mL,–,–,–,–,better inhibitory activity,61.98 ± 2.45,67.94 ± 4.69,81.14 ± 3.72,54.9 ± 1.34%,64.7 ± 2%,84 ± 4.36%,"inhibition at 15 µM ([1]; Mus musculus, at 15 μM, LPS-stimulated RAW264.7, read-out: inhibition rate on NO release): 92%; cell survival rate (anti-oxidant) [4]: 64%"
COc1cc(/C=C/C(=O)CC(=O)/C=C/c2cc(OC)c(O)c(OC)c2)cc(CN(C)C)c1O [Compound 2a],41.89 ± 1.95,38.68 ± 0.96,36.24 ± 0.50,57.7 ± 4.12%,61.6 ± 4.11%,148 mg/mL,56.60 ± 0.54,61.51 ± 1.77,65.65 ± 1.31,–,–,–,–,92.24 ± 6.04,–,–,–,cell survival rate (anti-oxidant) [4]: 61%
COc1cc(/C=C/C(=O)CC(=O)/C=C/c2cc(C)c(O)c(C)c2)cc(CN(C)C)c1O [Compound 8a],35.08 ± 2.53,16.57 ± 1.70,4.61 ± 0.29,60.3 ± 1.38%,62.2 ± 0.75%,118 mg/mL,74.54 ± 1.42,81.49 ± 3.47,87.62 ± 2.98,a certain degree of radiation protection capacity,better inhibitory activity,–,–,–,–,–,–,viability at 20 µM [2]: 81.9 ± 2.94%; anti-oxidant capacity compared with curcumin [4]: better anti-oxidant capacity
COc1cc(/C=C/C(=O)CC(=O)/C=C/c2ccc(O)cc2C)cc(CN(C)C)c1O [Compound 3a],32.92 ± 2.00,16.27 ± 1.74,5.29 ± 0.97,57.1 ± 3.05%,64.2 ± 0.94%,255 mg/mL,61.60 ± 3.89,72.94 ± 2.65,86.90 ± 1.63,–,better inhibitory activity,–,–,–,–,–,–,viability at 20 µM [2]: 69.1 ± 2.51%
COc1ccc(/C=C/C(=O)CC(=O)/C=C/c2cc(CN(C)C)c(O)c(OC)c2)cc1O [Compound 11a],35.82 ± 1.34,15.68 ± 3.02,4.63 ± 0.40,–,–,132 mg/mL,–,–,–,a certain degree of radiation protection capacity,better inhibitory activity,60.93 ± 1.64,64.92 ± 0.58,106.32 ± 7.58,61.5 ± 1.46%,73.7 ± 3.89%,97.3 ± 1.95%,"cell survival rate (radiation protection) ([2]; at 20 μM, irradiated PC 12): 106%"
COc1cc(/C=C/C(=O)CC(=O)/C=C/c2ccc(O)cc2F)cc(CN(C)C)c1O [Compound 4a],31.54 ± 1.30,20.51 ± 1.88,9.45 ± 1.96,56.4 ± 3.51%,61.5 ± 3.74%,314 mg/mL,67.52 ± 3.31,75.00 ± 2.39,86.52 ± 5.31,–,–,–,–,97.55 ± 3.44,–,–,–,–
COc1cc(/C=C/C(=O)CC(=O)/C=C/c2c(OC)cc(O)cc2OC)cc(CN(C)C)c1O [Compound 14a],29.10 ± 0.37,13.47 ± 0.31,7.49 ± 0.40,–,–,126 mg/mL,–,–,–,a certain degree of radiation protection capacity,better inhibitory activity,64.83 ± 0.66,68.68 ± 1.31,77.66 ± 1.75,68 ± 3.05%,77.1 ± 0.64%,81.9 ± 1.35%,radiation protection capability compared with curcumin ([2]; irradiated PC 12): better radiation protection capability
COc1cc(/C=C/C(=O)CC(=O)/C=C/c2c(C)cc(O)cc2C)cc(CN(C)C)c1O [Compound 13a],17.80 ± 2.19,9.09 ± 1.21,5.58 ± 0.11,–,–,285 mg/mL,–,–,–,a certain degree of radiation protection capacity,better inhibitory activity,66.55 ± 2.11,75.50 ± 1.73,88.50 ± 1.18,71.5 ± 2.53%,77.9 ± 3.02%,90.2 ± 3.77%,radiation protection capability compared with curcumin ([2]; irradiated PC 12): better radiation protection capability
COc1cc(/C=C/C(=O)CC(=O)/C=C/c2cc(C)c(O)cc2C)cc(CN(C)C)c1O [Compound 12a],18.38 ± 1.63,12.76 ± 0.83,9.05 ± 0.72,–,–,206 mg/mL,–,–,–,a certain degree of radiation protection capacity,better inhibitory activity,59.04 ± 1.00,63.19 ± 1.90,77.34 ± 2.18,76.3 ± 3.14%,81.9 ± 2.3%,88.1 ± 2.09%,anti-oxidant capacity compared with curcumin [4]: better anti-oxidant capacity
